Tests used:
[1] = molecular target: T1, Serine/threonine-protein kinase B-raf (Homo sapiens, UniProt P15056, V600E); test: Inhibition of BRAF V600E mutant-mediated MEK phosphorylation in human HT-29 cells by Western blotting analysis; assay type: cell-based
[2] = molecular target: T2, Serine/threonine-protein kinase B-raf (Homo sapiens, UniProt P15056); test: Inhibition of BRAF (unknown origin)
[3] = molecular target: T2, Serine/threonine-protein kinase B-raf; test: Inhibition of N-terminal 6X-His tagged human wild-type BRAF by ELISA
[4] = molecular target: T1, Serine/threonine-protein kinase B-raf; test: Inhibition of N-terminal 6X-His tagged human BRAF V600E mutant (433 to 726) by ELISA
A-375 = test: Antiproliferative activity against human A375 cells; assay type: functional, cell-based
[5] = Antiproliferative activity against human WM266.4 cells; assay type: functional, cell-based; settings: WM 266-4
[6] = molecular target: T1, Serine/threonine-protein kinase B-raf; test: Inhibition of BRAF V600E mutant (unknown origin)
[7] = molecular target: T2, Serine/threonine-protein kinase B-raf; test: Inhibition of BRAF (unknown origin)-mediated ERK phosphorylation

T1 sequence (P15056 2-766 V600E limits assumed): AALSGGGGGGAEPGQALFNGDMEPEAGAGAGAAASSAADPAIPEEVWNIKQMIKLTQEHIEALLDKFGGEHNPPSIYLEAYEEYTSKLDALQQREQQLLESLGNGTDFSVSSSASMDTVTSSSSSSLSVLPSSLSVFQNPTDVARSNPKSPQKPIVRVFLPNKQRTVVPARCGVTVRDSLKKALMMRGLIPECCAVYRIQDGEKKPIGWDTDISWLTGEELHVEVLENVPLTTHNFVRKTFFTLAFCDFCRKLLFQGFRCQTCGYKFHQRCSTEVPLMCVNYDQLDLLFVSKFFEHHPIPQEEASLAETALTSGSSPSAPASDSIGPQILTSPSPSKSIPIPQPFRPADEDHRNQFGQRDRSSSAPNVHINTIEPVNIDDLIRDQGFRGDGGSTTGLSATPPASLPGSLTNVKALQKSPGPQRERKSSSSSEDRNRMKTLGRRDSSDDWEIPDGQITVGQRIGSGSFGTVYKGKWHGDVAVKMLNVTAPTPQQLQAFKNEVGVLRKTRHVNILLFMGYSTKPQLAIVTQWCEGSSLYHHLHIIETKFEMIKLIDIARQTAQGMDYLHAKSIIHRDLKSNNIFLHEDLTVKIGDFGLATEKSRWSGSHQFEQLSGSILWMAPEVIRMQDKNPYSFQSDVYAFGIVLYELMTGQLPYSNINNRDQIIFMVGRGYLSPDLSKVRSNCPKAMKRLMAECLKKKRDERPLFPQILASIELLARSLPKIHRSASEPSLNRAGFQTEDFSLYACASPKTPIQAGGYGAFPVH
T2 sequence (P15056 whole entry): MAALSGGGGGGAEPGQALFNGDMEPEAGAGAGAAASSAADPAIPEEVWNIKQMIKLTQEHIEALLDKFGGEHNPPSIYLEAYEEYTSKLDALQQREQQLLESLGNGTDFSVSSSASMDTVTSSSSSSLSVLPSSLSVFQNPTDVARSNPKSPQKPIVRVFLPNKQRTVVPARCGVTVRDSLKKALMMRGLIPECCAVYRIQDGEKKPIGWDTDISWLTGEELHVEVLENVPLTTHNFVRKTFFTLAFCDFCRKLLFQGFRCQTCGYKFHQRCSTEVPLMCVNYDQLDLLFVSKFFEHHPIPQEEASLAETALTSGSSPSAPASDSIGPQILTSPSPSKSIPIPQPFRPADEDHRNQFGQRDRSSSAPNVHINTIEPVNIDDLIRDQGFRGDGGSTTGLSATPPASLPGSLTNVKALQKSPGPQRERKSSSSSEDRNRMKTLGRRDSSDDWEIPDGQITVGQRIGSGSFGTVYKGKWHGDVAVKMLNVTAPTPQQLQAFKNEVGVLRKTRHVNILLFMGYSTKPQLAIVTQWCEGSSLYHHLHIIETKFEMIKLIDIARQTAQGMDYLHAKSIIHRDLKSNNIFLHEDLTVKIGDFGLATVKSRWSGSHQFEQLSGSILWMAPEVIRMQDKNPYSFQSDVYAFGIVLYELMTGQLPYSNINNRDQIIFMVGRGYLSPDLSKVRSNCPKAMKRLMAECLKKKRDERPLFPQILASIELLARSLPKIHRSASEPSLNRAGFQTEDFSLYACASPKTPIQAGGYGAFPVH

O=C(Nc1cccc(Oc2ccc3nc(NC(=O)C4CCOCC4)cn3n2)c1)c1cccc(C(F)(F)F)c1
IC50 [1]: 3800 nM
IC50 [2]: 43 nM

O=C1NC(=S)NC(=O)C1=Cc1ccc(-c2ccc3c(c2)OCO3)o1
IC50 [3]: 1150 nM
IC50 [4]: 300 nM

O=C(Nc1ccccc1)N(Cc1ccc(Br)cc1O)c1cc(-c2ccccc2)[nH]n1
IC50 (A-375): 1320 nM
IC50 [5]: 1500 nM
IC50 [6]: 190 nM

O/N=C1\CCc2cc(-c3cn(C4CCNCC4)nc3-c3ccncc3)ccc21
IC50 [7]: 9 nM

From ChEMBL document CHEMBL3232715, “Recent progress in the identification of BRAF inhibitors as anti-cancer agents” (Eur J Med Chem, 2014)
